# From PubChem BioAssay (NCI)
#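 Growth conditions: 96-well plates. Treatment: test compound, 48 hours, 5 concentrations. Analysis: linear interpolation between bracketing concentrations; unreached endpoints set to highest concentration. TGI marks complete inhibition of growth.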
# What was measured:
# Assay in all cases: growth of human tumour cells (NCI), 48 h
# TK-10 renal = tested on: TK-10 renal
# SF-539 CNS = tested on: SF-539 CNS
# HCT-116 colon = tested on: HCT-116 colon
# OVCAR-4 ovarian = tested on: OVCAR-4 ovarian
# HOP-62 NSCLC = tested on: HOP-62 NSCLC
# HCT-15 colon = tested on: HCT-15 colon
# RPMI-8226 leukemia = tested on: RPMI-8226 leukemia
# HS 578T breast = tested on: HS 578T breast
# UACC-257 melanoma = tested on: UACC-257 melanoma
# OVCAR-3 ovarian = tested on: OVCAR-3 ovarian
# SNB-75 CNS = tested on: SNB-75 CNS
# SR leukemia = tested on: SR leukemia
# EKVX NSCLC = tested on: EKVX NSCLC
# ACHN renal = tested on: ACHN renal
# MALME-3M melanoma = tested on: MALME-3M melanoma
# HT29 colon = tested on: HT29 colon
# NCI/ADR-RES ovarian = tested on: NCI/ADR-RES ovarian
# NCI-H460 lung = tested on: NCI-H460 lung
# SK-MEL-2 melanoma = tested on: SK-MEL-2 melanoma
# SK-MEL-5 melanoma = tested on: SK-MEL-5 melanoma
Compound,TGI (TK-10 renal) [µM],TGI (SF-539 CNS) [µM],TGI (HCT-116 colon) [µM],TGI (OVCAR-4 ovarian) [µM],TGI (HOP-62 NSCLC) [µM],TGI (HCT-15 colon) [µM],TGI (RPMI-8226 leukemia) [µM],TGI (HS 578T breast) [µM],TGI (UACC-257 melanoma) [µM],TGI (OVCAR-3 ovarian) [µM],TGI (SNB-75 CNS) [µM],TGI (SR leukemia) [µM],TGI (EKVX NSCLC) [µM],TGI (ACHN renal) [µM],TGI (MALME-3M melanoma) [µM],TGI (HT29 colon) [µM],TGI (NCI/ADR-RES ovarian) [µM],TGI (NCI-H460 lung) [µM],TGI (SK-MEL-2 melanoma) [µM],TGI (SK-MEL-5 melanoma) [µM]
CCOC(=O)C(NC(=O)c1ccccc1)(Nc1ccc(S(=O)(=O)Nc2cc(C)nc(C)n2)cc1)C(F)(F)F (stereo not given),> 100,> 100,> 100,> 100,> 100,> 100,> 100,> 100,> 100,> 100,> 100,> 100,> 100,> 100,> 100,> 100,> 100,> 100,> 100,> 100
CCc1ccc(/C=C/C(=O)C2CN(CC)CCC2(O)/C=C/c2ccc(CC)cc2)cc1 (stereo not given),5.54,6,3.25,14.7,3.54,8.27,5.24,8.67,19.3,3.3,21.6,3.99,17.4,3.68,20,3.79,12.4,7.26,18.7,11.2
CC1OC(OCC2OC(Oc3ccc(C4CC(=O)c5c(O)cc(O)cc5O4)cc3O)C(O)C(O)C2O)C(O)C(O)C1O (stereo not given),> 100,> 100,> 100,> 100,> 100,> 100,> 100,> 100,> 100,> 100,> 100,> 100,> 100,> 100,> 100,> 100,> 100,> 100,> 100,> 100
CCCCCC(=Nc1n[nH]nc1C(N)=O)OCC,> 100,> 100,> 100,> 100,> 100,> 100,> 100,> 100,> 100,> 100,> 100,> 100,> 100,> 100,> 100,> 100,> 100,> 100,> 100,> 100
